Data: patent publication US9282737B2, “Agent for preventing pollen dispersal” (NOF Corporation, priority 2008, dated 2016)
Entries after “also recorded” stand apart in the source; their conditions may differ.

Key:
[1] = system: Cryptomeria japonica male flower buds and needle leaves; assay: Evaluation 1: immersion test of Cryptomeria japonica
Description: Evaluation 1 (Immersion Test of Cryptomeria japonica)
First, as agents to be used for an immersion test of Cryptomeria japonica, fatty acid derivative, fatty acid, polyoxyalkylene derivative, fats and oils and the like shown in Tables 1 and 2 were prepared. Next, many branches (length about 10 cm) of Cryptomeria japonica with 15 male flower buds on the tip were taken from the same tree of Cryptomeria japonica, and each group (five leaves for one group) was immersed in the agents (100 ml) of Tables 1 and 2. After immersing for about 1 min, the branches were taken out from the liquid and placed in a beaker. Browning changes were inspected visually on the male flower buds and needle leaves after one week. The test was performed using Cryptomeria japonica of August and November.

HLB of agent = assay type: physicochemical
[2] = branches of August, immersed about 1 min in agent, browning inspected visually after one week
[3] = branches of November, immersed about 1 min in agent, browning inspected visually after one week

| Molecule | change of state of male flower bud (August) [1, 2] | change of state of male flower bud (November) [1, 3] | change of state of needle leaf (August) ([1]; in vivo) | change of state of needle leaf (November) ([1]; in vivo) | HLB (HLB of agent) | change of state of needle leaf (August) [1, 2] | change of state of needle leaf (November) [1, 3] |
| --- | --- | --- | --- | --- | --- | --- | --- |
| polyoxyethylene linoleic acid ester [Example 2] | markedly browned | markedly browned | no change | no change | (HLB = 10.2) |  |  |
| sunflower oil [compound 9] |  |  | no change | no change |  |  |  |
| CCCCCCCC/C=C\CCCCCCCC(=O)[O-].[Na+] [compound 2, sodium oleate] | markedly browned | no effect; also recorded: no change |  |  |  | no change | no change |
| polyoxyethylene methylglucoside oleic acid ester [Example 8] | browned | browned | no change | no change |  |  |  |
| CCCCCCCC/C=C\CCCCCCCC(=O)O [Comparative Example 1, oleic acid] | markedly browned | no effect; also recorded: no change | no change | no change |  |  |  |
| polyoxyethylene-block-polyoxypropylene oleic acid ester [Example 5] | browned | browned | no change | no change |  |  |  |
| polyoxyethylene dilinoleic acid ester [Example 4] | markedly browned | markedly browned | no change | no change |  |  |  |
| polyoxyethylene oleic acid ester [Example 1] | browned | browned |  |  |  | no change | no change |
| polyoxyethylene sorbitan palmitic acid ester [compound 7] | no effect; also recorded: no change | no effect; also recorded: no change |  |  |  |  |  |
| polyoxyethylene sorbitan oleic acid ester [Example 6] | browned | browned |  |  |  |  |  |
| polyoxyethylene stearic acid ester [compound 4] | no effect; also recorded: no change | no effect; also recorded: no change |  |  |  |  |  |
| polyoxyethylene linolenic acid ester [Comparative Example 5] | an effect was obtained; also recorded: markedly browned | an effect was obtained; also recorded: markedly browned |  |  |  |  |  |
| CCCCC/C=C\C/C=C\CCCCCCCC(=O)O [compound 3, linoleic acid] | markedly browned | no effect; also recorded: no change | no change | no change |  |  |  |
| polyoxyethylene sorbitol linoleic acid ester [Example 7] | browned | browned | ho change | no change |  |  |  |
| polyoxyethylene sorbitol [Comparative Example 6] | not influenced; also recorded: no change | not influenced; also recorded: no change |  |  |  | not influenced; also recorded: no change | not influenced; also recorded: no change |
| polyoxyethylene glycerol linoleic acid ester [Example 9] | browned | browned | no change | no change |  |  |  |
| methoxypolyoxyethylene oleic acid ester [Example 3] | browned | browned | no change | no change |  |  |  |
